This is an account of results in ChEMBL document CHEMBL1152474, “Synthesis and investigation of anti-inflammatory activity and gastric ulcerogenicity of novel nitric oxide-donating pyrazoline derivatives” (Eur J Med Chem, 2009).

Data set [1] in a line: Induction of NO release per mol of compound in phosphate buffer at pH 7.4 at 100 uM after 1 hr by Griess assay. Type of data set: physicochemical. The note with it: pH 7.4, 1 h. On the technique in general: Nitrite, measured by Griess reagent, commonly stands in for NO production.
Data set [2] can be described thus: Induction of NO release per mol of compound in phosphate buffer at pH 7.4 at 100 uM after 2 hrs by Griess assay. The class given is physicochemical. The note with it: pH 7.4, 2 h.
The nature of data set [3]: Induction of NO release per mol of compound in phosphate buffer at pH 7.4 at 100 uM after 3 hrs by Griess assay. Type of data set: physicochemical. The note with it: pH 7.4, 3 h.
Data set [4] is described as follows: Induction of NO release per mol of compound in phosphate buffer at pH 7.4 at 100 uM after 4 hrs by Griess assay. The class given is physicochemical. The note with it: pH 7.4, 4 h.
The nature of data set [5]: Induction of NO release per mol of compound in phosphate buffer at pH 7.4 at 100 uM after 5 hrs by Griess assay. Type of data set: physicochemical. The note with it: pH 7.4, 5 h.
The nature of data set [6]: Induction of NO release per mol of compound in phosphate buffer at pH 7.4 at 100 uM after 6 hrs by Griess assay. The class given is physicochemical. The note with it: pH 7.4, 6 h.
Data set [7] concerns Rattus norvegicus. Put plainly: Antiinflammatory activity in albino rat assessed as inhibition of carrageenan-induced paw edema at 100 mg/kg, po treated for 30 mins measured after 1 hr of carrageenan challenge. The class given is functional. (The carrageenan paw model is a standard test of acute inflammation.)
For data set [8], the system named is Rattus norvegicus. Kind of data set: Antiinflammatory activity in albino rat assessed as inhibition of carrageenan-induced paw edema at 100 mg/kg, po treated for 30 mins measured after 2 hrs of carrageenan challenge. Type of data set: functional.
Data set [9] relates to Rattus norvegicus. Put plainly: Antiinflammatory activity in albino rat assessed as inhibition of carrageenan-induced paw edema at 100 mg/kg, po treated for 30 mins measured after 3 hrs of carrageenan challenge. Type of data set: functional.
Data set [10] concerns Rattus norvegicus. Kind of data set: Gastrotoxicity in albino rat assessed as ulcer index at 100 mg/kg, po after 5 hrs. The class given is toxicity, organism-based. Details: dose 100 mg/kg, route oral; call rule not given here. The note with it: in vivo.
Data set [11] can be described thus: Induction of NO release in phosphate buffer at pH 1 at 100 uM by Griess assay. Type of data set: physicochemical. The note with it: pH 1, 100 µM.
In data set [12] the test system is Rattus norvegicus. Kind of data set: Reduction in 5-(2,6-Dichlorophenyl)-4,5-dihydro-3-(4-methoxyphenyl)-1H-pyrazole-induced ulcer in albino rat at 100 mg/kg, po after 5 hrs. Type of data set: functional. On the set-up: scale not given: the % may be the effect or the level left.
Data set [13] concerns Rattus norvegicus. Put plainly: Reduction in 1-(2-Bromoacetyl)-5-(2,6-dichlorophenyl)-4,5-dihydro-3-(4-methoxyphenyl)-1H-pyrazole-induced ulcer in albino rat at 100 mg/kg, po after 5 hrs. On the set-up: scale not given: the % may be the effect or the level left. The class given is functional.

As usually defined, the inhibition in vivo is the change of the read-out against control, counted positive when it falls. For `COc1ccc(C2=NN(C(=O)CO[N+](=O)[O-])C(c3c(Cl)cccc3Cl)C2)cc1` (stereo not drawn), the NO release amounted to 0.195 mol/mol in data set [1]; 0.295 mol/mol in data set [2]; 0.356 mol/mol in [3]; 0.451 mol/mol in data set [4]; 0.656 mol/mol in data set [5]; 0.593 mol/mol in [6]. Besides, the inhibition in vivo at 100 mg/kg turned out to be 34% in the data set with Rattus norvegicus [7], 42% in the data set with Rattus norvegicus [8] and 52% with Rattus norvegicus [9]. For the same compound, the UI in the data set with Rattus norvegicus [10] is recorded as 0. For the same compound, the Activity entry in [11] is recorded as “Not Active”; in the data set on Rattus norvegicus [12], 96%; in the data set on Rattus norvegicus [13], 93%.
